Experimental data taken from the supplement of paper PMC10307832.

Key:
Experiment in all cases: relative viability (nuclei count vs DMSO), 5 days (fraction); higher = more cells survive
RO-3306 + Navitoclax = compound: C1=CC2=C(C=CC(=C2)C=C3C(=O)NC(=NCC4=CC=CS4)S3)N=C1 [RO-3306] + CC1(C)CCC(c2ccc(Cl)cc2)=C(CN2CCN(c3ccc(C(=O)NS(=O)(=O)c4ccc(N[C@H](CCN5CCOCC5)CSc5ccccc5)c(S(=O)(=O)C(F)(F)F)c4)cc3)CC2)C1 [Navitoclax] (partner 0.5 µM)
Outline: (§1)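 For relative viability, nuclei counts in treated wells were divided by those in vehicle wells. Lung cancer cell lines had been pin-tool dosed in 1536-well plates the day after seeding and cultured for 5 days, then fixed and stained in one step (final 0.05% Triton X-100, 1% formaldehyde, 1 ug/ml Hoechst) and imaged at 4×. Doses were one drug alone or a fixed anchor-drug dose plus five library-drug doses (not always all listed) in √10 steps, and values are duplicate-plate medians.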

RO-3306 + Pemetrexed = compound: C1=CC2=C(C=CC(=C2)C=C3C(=O)NC(=NCC4=CC=CS4)S3)N=C1 [RO-3306] + Nc1nc2[nH]cc(CCc3ccc(C(=O)N[C@@H](CCC(=O)O)C(=O)O)cc3)c2c(=O)[nH]1 [Pemetrexed] (partner 0.2 µM)
Outline: as §1

[1] = compound: O=S(=O)(c1ccccc1)N(CC(F)(F)F)c1ccc(C(O)(C(F)(F)F)C(F)(F)F)cc1 + CC(=O)c1c(C)c2cnc(Nc3ccc(N4CCNCC4)cn3)nc2n(C2CCCC2)c1=O [Palbociclib] (partner 0.5 µM)
Outline: as §1

RO-3306 + AZD7762 = compound: C1=CC2=C(C=CC(=C2)C=C3C(=O)NC(=NCC4=CC=CS4)S3)N=C1 [RO-3306] + NC(=O)Nc1cc(-c2cccc(F)c2)sc1C(=O)N[C@H]1CCCNC1 [AZD7762] (partner 0.2 µM)
Outline: as §1

Cell Line | relative viability (RO-3306 + Navitoclax; first compound 0.01 µM) | relative viability (RO-3306 + Navitoclax; first compound 0.03162 µM) | relative viability (RO-3306 + Navitoclax; first compound 0.1 µM) | relative viability (RO-3306 + Navitoclax; first compound 0.3162 µM) | relative viability (RO-3306 + Navitoclax; first compound 1 µM) | relative viability (RO-3306 + Pemetrexed; first compound 0.01 µM) | relative viability (RO-3306 + Pemetrexed; first compound 0.03162 µM) | relative viability (RO-3306 + Pemetrexed; first compound 0.1 µM) | relative viability (RO-3306 + Pemetrexed; first compound 0.3162 µM) | relative viability (RO-3306 + Pemetrexed; first compound 1 µM) | relative viability ([1]; first compound 0.8 µM) | relative viability ([1]; first compound 2.53 µM) | relative viability ([1]; first compound 8 µM) | relative viability (RO-3306 + AZD7762; first compound 0.01 µM) | relative viability (RO-3306 + AZD7762; first compound 0.03162 µM) | relative viability (RO-3306 + AZD7762; first compound 0.1 µM) | relative viability (RO-3306 + AZD7762; first compound 0.3162 µM) | relative viability (RO-3306 + AZD7762; first compound 1 µM)
NCI-H1755 | 1.1 | 0.919 | 1.04 | 1.01 | 1.05 | 0.656 | 0.505 | 0.446 | 0.426 | 0.404 | 0.471 | 0.46 | 0.464 | 0.609 | 0.473 | 0.458 | 0.439 | 0.496
NCI-H1792 | 0.74 | – | 0.614 | 0.599 | 0.311 | 1.11 | – | 0.649 | 0.757 | 0.749 | 0.614 | 0.549 | 0.453 | 0.76 | – | 0.657 | 0.709 | 0.661
NCI-H1793 | 0.432 | 0.391 | 0.46 | 0.46 | 0.358 | 0.971 | – | 0.771 | 0.901 | 0.667 | 0.258 | 0.22 | 0.258 | 0.643 | – | 0.484 | 0.277 | 0.532
NCI-H1915 | 0.808 | 0.797 | 0.792 | 0.781 | 0.718 | 0.609 | 0.495 | 0.52 | 0.49 | 0.572 | 0.46 | 0.577 | 0.525 | 0.749 | 0.679 | 0.727 | 0.698 | 0.685
NCI-H1944 | 1.11 | 1.03 | 0.963 | 1.09 | 0.993 | 0.794 | 0.63 | 0.663 | 0.611 | 0.671 | 0.342 | 0.303 | 0.332 | 0.606 | 0.571 | 0.508 | 0.45 | 0.46
NCI-H1975 | 1.49 | 0.986 | 1.22 | 1.12 | 1.01 | 0.28 | 0.269 | 0.303 | 0.321 | 0.302 | 0.71 | 0.567 | 0.644 | 0.762 | 0.671 | 0.712 | 0.641 | 0.653
NCI-H1993 | – | 0.926 | 0.892 | 0.864 | 0.83 | 0.627 | 0.5 | 0.624 | 0.573 | 0.539 | 0.57 | 0.511 | 0.594 | 0.697 | 0.756 | 0.772 | 0.77 | 0.684
NCI-H2085 | 1.12 | 1.08 | 1.09 | 1.17 | 1.07 | 0.958 | 0.859 | 0.803 | 0.907 | 0.962 | 0.432 | 0.431 | 0.413 | 1.04 | 0.95 | 0.93 | 0.921 | 1.07
NCI-H2087 | 0.999 | 1.15 | 0.995 | 1.08 | 0.937 | 0.678 | 0.677 | 0.636 | 0.652 | 0.648 | 0.253 | 0.183 | 0.261 | 1.42 | 1.03 | 1.35 | 1.42 | 1.34
NCI-H2126 | 0.868 | 0.816 | 0.822 | 0.858 | 0.756 | 0.673 | 0.671 | 0.707 | 0.735 | 0.676 | 0.344 | 0.345 | 0.355 | 1.01 | 0.976 | 1.02 | 0.993 | 1.13
NCI-H2170 | 0.571 | 0.447 | 0.593 | 0.62 | 0.595 | 0.314 | 0.311 | 0.241 | 0.251 | 0.271 | 0.433 | 0.353 | 0.356 | 1.11 | 0.865 | 0.938 | 0.939 | 0.907
NCI-H2347 | 0.947 | 0.645 | 1.03 | 0.772 | 0.93 | 0.44 | 0.37 | 0.428 | 0.433 | 0.437 | 0.42 | 0.374 | 0.395 | 1.13 | 0.663 | 0.796 | 0.766 | 0.724
NCI-H2405 | 0.91 | 0.735 | 0.934 | 0.949 | 0.834 | 0.913 | 1.02 | 1.01 | 0.971 | 0.907 | 0.554 | 0.506 | 0.55 | 0.828 | 0.608 | 0.717 | 0.718 | 0.578
NCI-H3122 | 1.03 | 1.03 | 0.983 | 1.05 | 1.07 | 0.203 | 0.193 | 0.456 | 0.195 | 0.197 | 0.143 | 0.148 | 0.202 | 1.16 | 1.06 | 0.973 | 1.06 | 1.1
PC-3 [JPC-3] | 1.04 | 0.697 | 0.816 | 0.805 | 0.745 | 0.783 | 0.753 | 1.01 | 1.07 | 0.37 | – | 0.381 | 0.532 | 0.688 | 0.673 | 0.769 | 0.687 | 0.681
PC-14 | 1.11 | – | 1.06 | 1.19 | 1.18 | 0.135 | 0.162 | 0.137 | 0.133 | 0.176 | 0.345 | 0.254 | 0.198 | 0.28 | 0.32 | 0.285 | 0.426 | 0.251
RERF-LC-KJ | 1.36 | 1.03 | 0.815 | 0.684 | 0.997 | 0.515 | 0.48 | 0.493 | 0.459 | 0.449 | 1.1 | 0.909 | 0.905 | 1.02 | 0.671 | 1.06 | 1.11 | 1.24
